From patent US20240382601A1, “EMULSION FORMULATION HAVING HIGH FORMULATION STABILITY AND MANUFACTURING METHOD THEREOF” (AMOREPACIFIC CORPORATION, priority 2023, published 2024)

Columns and labels:
[1] = logP values of complex ingredients
Source text: (§1) Among the above ingredients, the logP values of dipropylene glycol, diethoxyethyl 5 succinate.

[2] = HLB values of surfactants; assay type: physicochemical
Source text: as §1

Row | Molecule | logP [1] | HLB [2]
1 | CCCCCCCCCCCCOCCOCCO [Diethylene glycol lauryl ether] | 4 | 
2 | CCOCCOC(=O)CCC(=O)OCCOCC [Diethoxyethyl succinate] | 0.25 | 
3 | Polysorbate 20 |  | 17
4 | Polysorbate 60 |  | 15
